Test systems include CAKI-1; SR; SF-539; ACHN; SK-MEL-28; SK-MEL-2; MCF7; SW-620; A549; LOX IMVI; HOP-62; DU-145; CCRF-CEM; RPMI-8226; K562; UO-31; UACC-62; SF-268; MDA-MB-231.
Common to all, as to assay: NCI-60 cell line screen, 48 h

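How tested: cells in 96-well plates exposed to compound for 48 hours at five concentrations. GI50 marks 50% less growth.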 Calls of active or inactive are those of the source. Cut-off read from the data, not from the text of the source: active = GI50 up to about 1.1 µM and inactive = higher. Where a SMILES comes first, the peptide text is derived from it. [ ]: non-standard residue; d: D form. The star is where a group is joined. Octanoyl = CCCCCCCC(=O)*; Aib = CC(C)(N)C(=O)O; tBu = CC(C)(C)*

Turning to `O=S(=O)(Nc1ccccc1S(=O)(=O)c1ccccc1)c1ccccc1`, the GI50 with CAKI-1 is > 100 µM (inactive); in the assay on SR it was > 100 µM (inactive); in the assay with SF-539 it was > 100 µM (inactive); in the assay with ACHN it was 82.2 µM (inactive); in the assay on SK-MEL-28, > 100 µM (inactive); in the assay on SK-MEL-2 it was 64.3 µM (inactive). In addition, the GI50 was > 100 µM (inactive) in the assay on MCF7; 92.3 µM (inactive) in the assay with SW-620; 67.1 µM (inactive) with A549; > 100 µM (inactive) in the assay with LOX IMVI; > 100 µM (inactive) with HOP-62; 87.9 µM (inactive) in the assay with DU-145. For the same compound, the GI50 was 42.7 µM (inactive) with CCRF-CEM; 32.3 µM (inactive) in the assay on RPMI-8226; 61.5 µM (inactive) in the assay on K562; > 100 µM (inactive) with UO-31; 49 µM (inactive) in the assay on UACC-62; 91 µM (inactive) in the assay with SF-268. Also, the GI50 with MDA-MB-231 was > 100 µM (inactive).

As for `CN(C)CCNc1ccc(CO)c2oc3ccc(O)cc3c(=O)c12`, the GI50 in the assay on CAKI-1 is 21.6 µM (inactive); in the assay with SR, 1.14 µM (inactive); in the assay on SF-539 it was 12.3 µM (inactive); in the assay with ACHN it was 7.45 µM (inactive); in the assay on SK-MEL-28 it was 16.9 µM (inactive); in the assay with SK-MEL-2 it was 16.6 µM (inactive). For the same compound, the GI50 is 4.83 µM (inactive) in the assay on MCF7; 8.97 µM (inactive) in the assay with SW-620; 14.6 µM (inactive) in the assay with A549; 11.5 µM (inactive) in the assay on LOX IMVI; 10.3 µM (inactive) in the assay with HOP-62; 20.1 µM (inactive) in the assay on DU-145. The GI50 in the assay with CCRF-CEM was 4.56 µM (inactive); with RPMI-8226, 12.3 µM (inactive); with K562, 10.2 µM (inactive); in the assay with UO-31, 10.5 µM (inactive); in the assay with UACC-62, 11.5 µM (inactive); in the assay on SF-268, 9.31 µM (inactive). Moreover, in the assay on MDA-MB-231, the GI50 was 17 µM (inactive).

As to `O=C(O)C[S+]([O-])c1ccc2c3c(cccc13)C(=O)c1ccccc1-2` (stereo not given), the GI50 in the assay on CAKI-1, in the assay on SR, in the assay on SF-539, in the assay on ACHN, in the assay on SK-MEL-28 and with SK-MEL-2 was > 100 µM (inactive) in each case. Further, the GI50 in the assay on MCF7, in the assay on SW-620, in the assay with A549, with LOX IMVI, with HOP-62 and with DU-145 was > 100 µM (inactive) in each case. Also, the GI50 with CCRF-CEM, with RPMI-8226, with K562, with UO-31, in the assay on UACC-62 and in the assay with SF-268 was > 100 µM (inactive) each time. Further, in the assay with MDA-MB-231, the GI50 was > 100 µM (inactive).

For the compound `COc1cc2cc(C(=O)N3CC(CCl)c4ccc(NCCN)cc43)[nH]c2c(OC)c1OC` (stereo not given), the GI50 was 0.143 µM (active) with CAKI-1; 0.0279 µM (active) with SR; 0.209 µM (active) with SF-539; 0.08 µM (active) in the assay with ACHN; 0.249 µM (active) with SK-MEL-28; 0.179 µM (active) with SK-MEL-2. The GI50 with MCF7 is 0.0361 µM (active); in the assay on SW-620, 0.151 µM (active); in the assay on A549 it was 0.208 µM (active); in the assay with LOX IMVI, 0.155 µM (active); in the assay on HOP-62, 0.166 µM (active); with DU-145 it was 0.08 µM (active). For the same compound, the GI50 is 0.0783 µM (active) in the assay on CCRF-CEM; 0.153 µM (active) with RPMI-8226; 0.11 µM (active) in the assay on K562; 0.132 µM (active) in the assay on UO-31; 0.111 µM (active) in the assay with UACC-62; 0.242 µM (active) in the assay with SF-268. For the same compound, the GI50 in the assay with MDA-MB-231 is 0.223 µM (active).

Turning to `[N-]=[N+]=Nc1c([N+](=O)[O-])c(=O)n(-c2ccccc2)c2ccccc12`, the GI50 in the assay on CAKI-1 is 21.5 µM (inactive); with SR it was 25.2 µM (inactive); in the assay on SF-539 it was 25.5 µM (inactive); in the assay on ACHN, 21.7 µM (inactive); in the assay with SK-MEL-28 it was 26.5 µM (inactive); in the assay on SK-MEL-2, 17.9 µM (inactive). For the same compound, the GI50 in the assay on MCF7 is 20.7 µM (inactive); in the assay on SW-620, 29.2 µM (inactive); in the assay on A549, 38.7 µM (inactive); in the assay on LOX IMVI, 17.5 µM (inactive); in the assay with HOP-62, 43.7 µM (inactive); in the assay on DU-145, 35.2 µM (inactive). The GI50 was 29.4 µM (inactive) in the assay with CCRF-CEM; 16 µM (inactive) with RPMI-8226; 22.5 µM (inactive) with K562; 14.8 µM (inactive) in the assay on UO-31; 14.3 µM (inactive) with UACC-62; 22.5 µM (inactive) with SF-268. Moreover, the GI50 with MDA-MB-231 was 17.8 µM (inactive).

`COc1ccc(C2C(C(=O)c3ccccc3)=C(O)C(O)(CC(=O)c3ccccc3)N2c2ccc(OC)cc2)cc1` (stereo not given): the GI50 was 24.5 µM (inactive) in the assay on CAKI-1; 4.66 µM (inactive) with SR; 24.4 µM (inactive) with SF-539; 21 µM (inactive) in the assay on ACHN; 28.6 µM (inactive) with SK-MEL-28; 16.1 µM (inactive) with SK-MEL-2. For the same compound, the GI50 with MCF7 was 11.9 µM (inactive); in the assay on SW-620, 9.08 µM (inactive); with A549, 22.4 µM (inactive); with LOX IMVI, 15.2 µM (inactive); in the assay with HOP-62, 18.8 µM (inactive); with DU-145, 38.4 µM (inactive). Further, the GI50 in the assay on CCRF-CEM was 3.52 µM (inactive); in the assay on RPMI-8226, 5.04 µM (inactive); in the assay with K562 it was 16.6 µM (inactive); in the assay on UO-31, 11.5 µM (inactive); with UACC-62, 22.8 µM (inactive); with SF-268, 33.7 µM (inactive). For the same compound, the GI50 in the assay with MDA-MB-231 was 19.2 µM (inactive).

Regarding `CCCCCCCC(=O)NC(C)(C)C(=O)NC(COC(C)(C)C)C(=O)NC(CC(C)C)C(=O)NC(C)(C)C(=O)NC(COC(C)(C)C)C(=O)NC(COC(C)(C)C)C(=O)NC(CC(C)C)C(=O)NC(C)(C)C(=O)NC(COC(C)(C)C)C(=O)NC(C(=O)NC(CC(C)C)C(=O)OC)C(C)CC` (stereo not given) (Octanoyl-[Aib]S(tBu)L[Aib]S(tBu)S(tBu)L[Aib]S(tBu)IL-OMe; configuration not given here), the GI50 with CAKI-1 was 18.5 µM (inactive); with SR, 5.62 µM (inactive); in the assay with SF-539, 8.49 µM (inactive); with ACHN it was 7.62 µM (inactive); with SK-MEL-28, 14.4 µM (inactive); with SK-MEL-2, 6.01 µM (inactive). The GI50 in the assay on MCF7 was 5.98 µM (inactive); with SW-620 it was 8.95 µM (inactive); in the assay with A549 it was 8.18 µM (inactive); in the assay with LOX IMVI, 5.61 µM (inactive); in the assay with HOP-62 it was 9.31 µM (inactive); with DU-145 it was 6.9 µM (inactive). The GI50 in the assay with CCRF-CEM is 4.79 µM (inactive); in the assay with RPMI-8226 it was 2.72 µM (inactive); with K562, 5.52 µM (inactive); with UO-31, 14.6 µM (inactive); in the assay with UACC-62, 7.8 µM (inactive); in the assay with SF-268, 9.95 µM (inactive). Moreover, the GI50 in the assay with MDA-MB-231 is 5.86 µM (inactive).

`CC1COC(c2cn[nH]c2C(N)=O)C1O` (stereo not given): the GI50 with CAKI-1, in the assay on SR, in the assay on SF-539, in the assay with ACHN, in the assay on SK-MEL-28 and with SK-MEL-2 was > 100 µM (inactive) each time. For the same compound, the GI50 in the assay on MCF7, in the assay on SW-620, with A549, with LOX IMVI, with HOP-62 and with DU-145 was > 100 µM (inactive) throughout. Also, the GI50 in the assay with CCRF-CEM, in the assay with RPMI-8226, in the assay on K562, in the assay on UO-31, in the assay on UACC-62 and in the assay with SF-268 was > 100 µM (inactive) each time. In addition, the GI50 in the assay with MDA-MB-231 is > 100 µM (inactive).

`Cc1cc2c(cc1C)N1C(Cl)=C3CCCCC3=C(C#N)C1N2` (stereo not given): the GI50 in the assay on CAKI-1 was 5.04 µM (inactive); with SR it was 3.65 µM (inactive); with SF-539, 22.4 µM (inactive); in the assay with ACHN, 3.16 µM (inactive); with SK-MEL-28 it was 3.3 µM (inactive); with SK-MEL-2 it was 14.6 µM (inactive). Moreover, the GI50 is 4.16 µM (inactive) with MCF7; 2.02 µM (inactive) in the assay with SW-620; 19.9 µM (inactive) with A549; 2.19 µM (inactive) with LOX IMVI; 14.3 µM (inactive) in the assay with HOP-62; 19.3 µM (inactive) in the assay on DU-145. Moreover, the GI50 is 2.48 µM (inactive) in the assay with CCRF-CEM; 5.25 µM (inactive) with RPMI-8226; 3.6 µM (inactive) in the assay on K562; 6.55 µM (inactive) in the assay on UO-31; 2.94 µM (inactive) in the assay on UACC-62; 9.25 µM (inactive) in the assay with SF-268. Moreover, the GI50 with MDA-MB-231 was 8.75 µM (inactive).

For the compound `CC(=O)OC(C)c1cc2c(s1)C(=O)c1scc(C(C)OC(C)=O)c1C2=O` (stereo not given), the GI50 was 1.56 µM (inactive) in the assay with CAKI-1; 0.21 µM (active) with SR; 0.175 µM (active) with SF-539; 0.238 µM (active) with ACHN; 0.226 µM (active) in the assay with SK-MEL-28; 0.227 µM (active) in the assay with SK-MEL-2. In addition, the GI50 in the assay with MCF7 was 0.251 µM (active); in the assay with SW-620, 0.298 µM (active); with A549, 0.363 µM (active); with LOX IMVI, 0.118 µM (active); with HOP-62 it was 0.191 µM (active); in the assay with DU-145 it was 0.178 µM (active). The GI50 in the assay on CCRF-CEM was 0.367 µM (active); with RPMI-8226, 0.223 µM (active); with K562, 0.355 µM (active); with UO-31, 0.204 µM (active); in the assay with UACC-62, 0.212 µM (active); in the assay with SF-268, 0.211 µM (active). Besides, the GI50 in the assay with MDA-MB-231 is 0.473 µM (active).

Source of the values: ChEMBL document CHEMBL1201862, “PubChem BioAssay data set” (2004).
